Assay results taken from patent US20230123334A1, “AMINO LIPID COMPOUND, PREPARATION METHOD THEREFOR, AND APPLICATION THEREOF” (SHENZHEN SHENXIN BIOTECHNOLOGY CO., LTD., priority 2020, published 2023).

How the values were obtained:
HEK293 cells [1] = assay: Preliminary screening as mRNA vectors, EGFP mRNA transfection of HEK293 cells; format: cell-based; conditions: HEK293 cells, 96-well plates, EGFP mRNA 50 ng per well; percentage of GFP fluorescent cells relative to total number of cells (Hoechst)
How it was run: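 Each well of HEK293 cells received 50 ng of EGFP mRNA. Efficiency was expressed as percent GFP-expressing cells over Hoechst-defined total cell number.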

HEK293 cells [2] = assay: Preliminary screening as DNA vectors, GFP transfection of HEK293 cells; format: cell-based; conditions: HEK293 cells; lipid/DOPE liposome with 75 ng plasmid DNA (psin-EGFP-IRES-Puro); number of cells expressing GFP divided by total number of nuclei (Hoechst)
How it was run: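 Lipid + DOPE liposomes (NaOAc, pH 5.6) complexed w/ 75 ng psin-EGFP-IRES-Puro, 30 min RT; added to 3-5×10^4 HEK293/well, 37° C. Hoechst 0.2 μg/mL at 20-24 h, imaged after further 20-24 h. Efficiency = GFP+ cells / total nuclei.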

SMILES: CCCCCCCCCNc1nc(NCCCCCCC)nc(NCCN2CCCCC2)n1 [Compound N7N9D4]
- Absolute mRNA transfection efficiency in HEK293 cells (HEK293 cells [1]): 0.0%
- Absolute DNA transfection efficiency in HEK293 cells (HEK293 cells [2]): 0.0%

SMILES: CCCCCCCNc1nc(NCCCCCCC)nc(NCCCN(C)C)n1 [Compound N7N7D6]
- Absolute mRNA transfection efficiency in HEK293 cells (HEK293 cells [1]): 0.0%
- Absolute DNA transfection efficiency in HEK293 cells (HEK293 cells [2]): 0.0%

SMILES: CCCCCCCCCCCCN(CCCCCCCCCCCC)c1nc(NCCCCCC)nc(NCCN2CCCCC2)n1 [N6^2N12D4]
- Absolute mRNA transfection efficiency in HEK293 cells (HEK293 cells [1]): 0.0%
- Absolute DNA transfection efficiency in HEK293 cells (HEK293 cells [2]): 0.2%

SMILES: CCCCCCCCCCCCCCCNc1nc(NCCCCCCCCCCCCC)nc(NCCN(C)C)n1 [Compound N13N15D1]
- Absolute mRNA transfection efficiency in HEK293 cells (HEK293 cells [1]): 1.4%
- Absolute DNA transfection efficiency in HEK293 cells (HEK293 cells [2]): 1.5%

SMILES: CCCCCCCCCCCSc1nc(NCCN2CCCC2)nc(SCCCCCCCCCCC)n1 [Compound S11S11D3]
- Absolute mRNA transfection efficiency in HEK293 cells (HEK293 cells [1]): 3.6%
- Absolute DNA transfection efficiency in HEK293 cells (HEK293 cells [2]): 6.5%

SMILES: CCCCCCCCCCCCCCCNc1nc(NCCCCCCCCCCCCCCC)nc(NCCN2CCCC2)n1 [Compound N15N15D3]
- Absolute mRNA transfection efficiency in HEK293 cells (HEK293 cells [1]): 3.8%
- Absolute DNA transfection efficiency in HEK293 cells (HEK293 cells [2]): 1.8%

SMILES: CCCCCCCCCCCCNc1nc(NCCCCCCCCC)nc(NCCCN(C)C)n1 [Compound N9N12D6]
- Absolute mRNA transfection efficiency in HEK293 cells (HEK293 cells [1]): 0.2%
- Absolute DNA transfection efficiency in HEK293 cells (HEK293 cells [2]): 0.0%

SMILES: CCCCCCCCCCCCCNc1nc(NCCCCCCCC)nc(NCC2CCN(C)CC2)n1 [Compound N8N13D10]
- Absolute mRNA transfection efficiency in HEK293 cells (HEK293 cells [1]): 1.9%
- Absolute DNA transfection efficiency in HEK293 cells (HEK293 cells [2]): 2.1%

SMILES: CCCCCCCCCCCCCCCCCCSc1nc(NCCN2CCCC2)nc(SCCCCCCCC)n1 [Compound S8S18D3]
- Absolute mRNA transfection efficiency in HEK293 cells (HEK293 cells [1]): 61.5%
- Absolute DNA transfection efficiency in HEK293 cells (HEK293 cells [2]): 14.3%

SMILES: CCCCCCCCCCCCCCCCCCSc1nc(NCCN2CCCC2)nc(SCCCCCCCCC)n1 [Compound S9S18D3]
- Absolute mRNA transfection efficiency in HEK293 cells (HEK293 cells [1]): 35.8%
- Absolute DNA transfection efficiency in HEK293 cells (HEK293 cells [2]): 13.9%

SMILES: CCCCCCCCCCCCN(CCCCCCCCCCCC)c1nc(NCCCCCCC)nc(NCCN2CCOCC2)n1 [N7^2N12D2]
- Absolute mRNA transfection efficiency in HEK293 cells (HEK293 cells [1]): 0.9%
- Absolute DNA transfection efficiency in HEK293 cells (HEK293 cells [2]): 1.7%

SMILES: CCCCCCCCCCCCSc1nc(NCCN2CCCCC2)nc(SCCCCCCCCCCCC)n1 [Compound S12S12D4]
- Absolute mRNA transfection efficiency in HEK293 cells (HEK293 cells [1]): 36.3%
- Absolute DNA transfection efficiency in HEK293 cells (HEK293 cells [2]): 4.1%

SMILES: CCCCCCCCCCCCCCCCNc1nc(NCCCCCCCCCCCCCCCC)nc(NCCCN2CCOCC2)n1 [Compound N16N16D8]
- Absolute mRNA transfection efficiency in HEK293 cells (HEK293 cells [1]): 1.6%
- Absolute DNA transfection efficiency in HEK293 cells (HEK293 cells [2]): 0.5%

SMILES: CCCCCCCCCCCCCCCCCCSc1nc(NCCN(C)C)nc(SCCCCCCCCCCCCCCCC)n1 [Compound S16S18D1]
- Absolute mRNA transfection efficiency in HEK293 cells (HEK293 cells [1]): 2.1%
- Absolute DNA transfection efficiency in HEK293 cells (HEK293 cells [2]): 1.2%

SMILES: CCCCCCCCCCCCCCCCCCNc1nc(NCCCCCCCCCCC)nc(NCCN2CCOCC2)n1 [Compound N11N18D2]
- Absolute mRNA transfection efficiency in HEK293 cells (HEK293 cells [1]): 0.8%
- Absolute DNA transfection efficiency in HEK293 cells (HEK293 cells [2]): 0.3%

SMILES: CCCCCCCCCCCCCCCCNc1nc(NCCCCCCCCCCCCCCCC)nc(NCCN2CCN(C)CC2)n1 [Compound N16N16D5]
- Absolute mRNA transfection efficiency in HEK293 cells (HEK293 cells [1]): 0.0%
- Absolute DNA transfection efficiency in HEK293 cells (HEK293 cells [2]): 0.0%

SMILES: CCCCCCCCCCCCCCCCNc1nc(NCCCCCCCCCCCCC)nc(NCCCN(C)C)n1 [Compound N13N16D6]
- Absolute mRNA transfection efficiency in HEK293 cells (HEK293 cells [1]): 3.8%
- Absolute DNA transfection efficiency in HEK293 cells (HEK293 cells [2]): 1.0%

SMILES: CCCCCCCCCCCCCCCNc1nc(NCCCCCCC)nc(NCCN2CCOCC2)n1 [Compound N7N15D2]
- Absolute mRNA transfection efficiency in HEK293 cells (HEK293 cells [1]): 0.1%
- Absolute DNA transfection efficiency in HEK293 cells (HEK293 cells [2]): 0.0%

SMILES: CCCCCCCCCCCCNc1nc(NCCCCCCCCCCCC)nc(NCCCN(C)C)n1 [Compound N12N12D6]
- Absolute mRNA transfection efficiency in HEK293 cells (HEK293 cells [1]): 0.8%
- Absolute DNA transfection efficiency in HEK293 cells (HEK293 cells [2]): 0.3%

SMILES: CCCCCCCCCCCCCCCCCCNc1nc(NCCCCCCCCCCCCCCCC)nc(NCCN2CCOCC2)n1 [Compound N16N18D2]
- Absolute mRNA transfection efficiency in HEK293 cells (HEK293 cells [1]): 0.0%
- Absolute DNA transfection efficiency in HEK293 cells (HEK293 cells [2]): 1.2%
